Test results as given in US20100285038A1, “Factor Involved in Metastasis and Uses Thereof” (priority 2002, published 2010).

Key:
[1] = tested on: Akt and phosphorylated Akt (P*Akt); test: Western blot analysis of Akt and phosphorylated Akt in PC-3 cells; assay type: cell-based, human; conditions: DMSO as control (FIG. 9A)
Experimental: (§1) To investigate whether PI 3-kinase activity has an impact on PRF1 protein expression, PC-3 cells were treated either with LY294002 or with DMSO as control. Analysis was performed by Western Blot analysis using the polyclonal antibody as detection means for PRF1 protein. Apart from PRF1 protein, also expression of Akt and phosphorylated Akt (P*Akt) was monitored using respective specific antibodies. Additionally, the expression of p110α and p85 was monitored.

PRF1 protein = test: Western blot analysis of PRF1 protein expression in PC-3 cells; assay type: cell-based, human; conditions: PC-3 cells; after 72 and 96 h; DMSO as control (FIG. 9A)
Experimental: A polyclonal antibody was generated against PRF1 using standard techniques. The polyclonal antibody thus obtained was tested for its specificity for PRF1. For that purpose, cell lysates from PC-3 cells treated with PRF1 specific antisense molecules, more particularly gene blocks, or mismatches thereof and cells transfected with expression plasmides for recombinant HA-tagged PRF1 were prepared. The lysates were analysed by Western blot analysis using the polyclonal antibody and the results are depicted in FIG. 8 A.
as §1
To investigate whether the expression of PRF1 at the protein level would also be dependent on Akt (PKB) activity and HIF1α activity PC-3 cells were treated with Akt specific antisense molecules. More particularly, two antisense molecules, designated Akt1-GB and Akt2-molecule were used with the readout being the same as discussed in connection with FIG. 9, whereby, additionally, the HIF1α protein expression was monitored using a commercially available protein G-purified polyclonal antibody (R&DSystems, Lot Number: IUGO13071).
The same experiment using the same markers for monitoring except Akt and P*-Akt was carried out with cells grown under hypoxic conditions which was realized by treating the cells with CoCl2. Two different forms of antisense molecules, namely HIF1α-GB66 and HIF1α-GB67 were used and respective mismatches used as controls.
A lane of the Blot represents the cell lysate of the cells shown in the corresponding photograph. As a read-out, p110 alpha and p85 are shown as loading control and the component of the PI-3K pathway investigated, i.e. AKT, monitored as P*AKT, HIF1 alpha and PRF1.

## O=c1cc(N2CCOCC2)oc2c(-c3ccccc3)cccc12 [LY294002, 2-(4-morpholinyl)-8-phenylchromone]
[1]
  Akt and phosphorylated Akt: down regulated
PRF1 protein
  PRF1 protein expression: down regulated
